From BindingDB's records for patent US20240409538 (Impact Therapeutics (Shanghai), 2024)

Target: Ubiquitin carboxyl-terminal hydrolase 1/WD repeat-containing protein 48 (Homo sapiens, UniProt O94782)
Assay: Not found

Chain of Ubiquitin carboxyl-terminal hydrolase 1/WD repeat-containing protein 48 (O94782 whole entry): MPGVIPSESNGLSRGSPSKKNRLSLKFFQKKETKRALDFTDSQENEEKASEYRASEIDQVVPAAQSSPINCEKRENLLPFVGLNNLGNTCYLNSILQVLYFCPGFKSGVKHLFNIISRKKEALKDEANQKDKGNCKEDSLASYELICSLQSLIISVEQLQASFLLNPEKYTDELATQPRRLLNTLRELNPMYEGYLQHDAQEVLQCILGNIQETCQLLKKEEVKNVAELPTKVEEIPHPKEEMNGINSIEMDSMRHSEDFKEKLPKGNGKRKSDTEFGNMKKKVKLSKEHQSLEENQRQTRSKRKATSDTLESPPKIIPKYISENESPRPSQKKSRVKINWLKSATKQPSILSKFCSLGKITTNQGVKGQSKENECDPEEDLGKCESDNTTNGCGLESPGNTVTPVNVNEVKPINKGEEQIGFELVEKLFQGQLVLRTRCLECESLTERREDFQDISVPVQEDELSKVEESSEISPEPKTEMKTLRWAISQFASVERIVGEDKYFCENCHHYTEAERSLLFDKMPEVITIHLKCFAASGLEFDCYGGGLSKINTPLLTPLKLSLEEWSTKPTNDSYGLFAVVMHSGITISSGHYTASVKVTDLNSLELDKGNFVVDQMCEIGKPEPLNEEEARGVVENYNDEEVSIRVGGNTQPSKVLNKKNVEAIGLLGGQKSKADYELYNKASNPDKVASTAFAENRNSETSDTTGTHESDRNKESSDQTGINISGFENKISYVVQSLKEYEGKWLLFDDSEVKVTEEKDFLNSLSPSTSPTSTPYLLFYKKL
Chain of Ubiquitin carboxyl-terminal hydrolase 1/WD repeat-containing protein 48 (Q8TAF3 whole entry, further chain): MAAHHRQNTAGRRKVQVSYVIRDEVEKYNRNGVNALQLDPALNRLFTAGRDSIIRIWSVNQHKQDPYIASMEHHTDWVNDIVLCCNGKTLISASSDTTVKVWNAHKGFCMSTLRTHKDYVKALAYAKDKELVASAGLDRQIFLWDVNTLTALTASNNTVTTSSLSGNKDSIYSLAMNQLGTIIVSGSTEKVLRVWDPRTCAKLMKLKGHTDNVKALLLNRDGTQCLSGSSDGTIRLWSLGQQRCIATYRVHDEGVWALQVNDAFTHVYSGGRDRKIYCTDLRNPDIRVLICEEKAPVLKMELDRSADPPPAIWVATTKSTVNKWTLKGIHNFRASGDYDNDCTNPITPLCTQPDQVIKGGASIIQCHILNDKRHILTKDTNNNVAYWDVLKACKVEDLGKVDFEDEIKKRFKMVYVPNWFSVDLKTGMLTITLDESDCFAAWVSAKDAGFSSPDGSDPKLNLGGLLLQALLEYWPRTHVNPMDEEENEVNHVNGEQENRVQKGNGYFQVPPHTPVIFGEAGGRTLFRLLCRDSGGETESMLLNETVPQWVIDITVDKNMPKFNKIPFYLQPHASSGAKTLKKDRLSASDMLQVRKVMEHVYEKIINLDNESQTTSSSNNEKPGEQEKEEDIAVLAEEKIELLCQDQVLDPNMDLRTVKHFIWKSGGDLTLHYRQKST

COc1ncnc(OC)c1-c1nc2c(Cc3ccc(-c4nc(C(F)(F)F)cn4C)cc3)cccn2n1 [US20240409538, Example 27]
IC50: 77.5 nM
